# Target: Histone-lysine N-methyltransferase EZH2 (Homo sapiens, UniProt Q15910)
# Test: Inhibition of wild type EZH2 (unknown origin) by AlphaLISA assay
# Conditions: not given
# Histone-lysine N-methyltransferase EZH2, sequence (Q15910 whole entry): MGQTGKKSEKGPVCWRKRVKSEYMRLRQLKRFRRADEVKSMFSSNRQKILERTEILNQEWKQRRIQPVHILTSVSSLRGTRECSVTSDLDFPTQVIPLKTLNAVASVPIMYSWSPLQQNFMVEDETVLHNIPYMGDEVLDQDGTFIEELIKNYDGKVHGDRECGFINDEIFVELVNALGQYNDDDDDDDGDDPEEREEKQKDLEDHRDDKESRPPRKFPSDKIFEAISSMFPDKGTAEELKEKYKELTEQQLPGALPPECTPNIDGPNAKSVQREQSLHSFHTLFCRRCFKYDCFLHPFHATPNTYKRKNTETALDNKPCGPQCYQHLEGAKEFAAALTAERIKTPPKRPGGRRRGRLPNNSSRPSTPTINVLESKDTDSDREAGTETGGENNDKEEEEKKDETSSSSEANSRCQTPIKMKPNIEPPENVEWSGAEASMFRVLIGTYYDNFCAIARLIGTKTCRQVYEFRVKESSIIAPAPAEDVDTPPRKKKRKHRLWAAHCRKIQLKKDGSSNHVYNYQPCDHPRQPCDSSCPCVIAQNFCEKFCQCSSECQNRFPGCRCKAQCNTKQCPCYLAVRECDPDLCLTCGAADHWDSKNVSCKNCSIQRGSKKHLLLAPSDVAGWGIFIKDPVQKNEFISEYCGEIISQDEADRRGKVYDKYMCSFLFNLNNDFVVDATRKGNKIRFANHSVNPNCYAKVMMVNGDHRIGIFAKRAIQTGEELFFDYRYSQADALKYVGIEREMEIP
row,Compound,IC50
1,CCN(c1cc(/C=C/c2ccc(CN3CCC4(CC3)OCCO4)cc2)cc(C(=O)NCc2c3c(c(C)[nH]c2=O)CCCC3)c1C)C1CCOCC1,0.055 µM
2,CCN(c1cc(/C=C/c2ccc(CN3CCC4(CC3)OCCO4)cc2)cc(C(=O)NCc2c(C)c3c([nH]c2=O)CCCC3)c1C)C1CCOCC1,0.189 µM

# Tested on: not listed separately
# Test: Antiproliferative activity against over expressing […] human WSU-DLCL2 cells
# Format: functional
# Conditions: WSUDLCL2
row,Compound,IC50
1,CCN(c1cc(/C=C/c2ccc(CN3C[C@@H]4C[C@H]3CO4)c(F)c2)cc(C(=O)NCc2c3c(c(C)[nH]c2=O)CCCC3)c1C)C1CCOCC1,9.27 µM
2,CCN(c1cc(/C=C/c2ccc(CN3C[C@@H](C)O[C@@H](C)C3)cc2)cc(C(=O)NCc2c3c(c(C)[nH]c2=O)CCCC3)c1C)C1CCOCC1,> 30 µM
3,CCN(c1cc(/C=C/c2ccc(CN3CCC4(CC3)OCCO4)cc2)cc(C(=O)NCc2c3c(c(C)[nH]c2=O)CCCC3)c1C)C1CCOCC1,27.7 µM
4,CCN(c1cc(/C=C/c2cccc(CN(C)C)c2)cc(C(=O)NCc2c(C)c3c([nH]c2=O)CCCC3)c1C)C1CCOCC1,20.9 µM
5,CCN(c1cc(/C=C/c2ccc(S(=O)(=O)N3CCOCC3)cc2)cc(C(=O)NCc2c(C)c3c([nH]c2=O)CCCC3)c1C)C1CCOCC1,> 30 µM
6,CCN(c1cc(/C=C/c2ccc3c(c2)NC(=O)CO3)cc(C(=O)NCc2c3c(c(C)[nH]c2=O)CCCC3)c1C)C1CCOCC1,> 30 µM
7,CCN(c1cc(/C=C/c2ccc3c(c2)NC(=O)CO3)cc(C(=O)NCc2c(C)c3c([nH]c2=O)CCCC3)c1C)C1CCOCC1,> 30 µM
8,CCN(c1cc(/C=C/c2ccc(CN3C[C@@H](C)O[C@@H](C)C3)c(F)c2)cc(C(=O)NCc2c(C)c3c([nH]c2=O)CCCC3)c1C)C1CCOCC1,> 30 µM
9,CCN(c1cc(/C=C/c2ccc(CN3C[C@@H](C)O[C@@H](C)C3)c(F)c2)cc(C(=O)NCc2c3c(c(C)[nH]c2=O)CCCC3)c1C)C1CCOCC1,27.7 µM
10,CCN(c1cc(/C=C/c2cccc(CN3CCOCC3)c2)cc(C(=O)NCc2c(C)c3c([nH]c2=O)CCCC3)c1C)C1CCOCC1,> 30 µM
11,CCN(c1cc(/C=C/c2ccc(CN3CCN(C)CC3)cc2)cc(C(=O)NCc2c(C)c3c([nH]c2=O)CCCC3)c1C)C1CCOCC1,3.11 µM
12,CCN(c1cc(/C=C/c2ccc(CN3CCC4(CC3)OCCO4)cc2)cc(C(=O)NCc2c(C)c3c([nH]c2=O)CCCC3)c1C)C1CCOCC1,17.5 µM
13,CCN(c1cc(-c2ccc(CN3CCN(C)CC3)cc2)cc(C(=O)NCc2c3c(c(C)[nH]c2=O)CCCC3)c1C)C1CCOCC1,1.64 µM

# Tested on: SUD4
# Test: Antiproliferative activity against over expressing […] human SUDHL4 cells
# Format: functional, cell-based
# Conditions: SU-DHL-4
row,Compound,IC50
1,CCN(c1cc(/C=C/c2ccc(CN3C[C@@H]4C[C@H]3CO4)c(F)c2)cc(C(=O)NCc2c3c(c(C)[nH]c2=O)CCCC3)c1C)C1CCOCC1,15.4 µM
2,CCN(c1cc(/C=C/c2ccc(CN3C[C@@H](C)O[C@@H](C)C3)cc2)cc(C(=O)NCc2c3c(c(C)[nH]c2=O)CCCC3)c1C)C1CCOCC1,> 30 µM
3,CCN(c1cc(/C=C/c2ccc(CN3CCC4(CC3)OCCO4)cc2)cc(C(=O)NCc2c3c(c(C)[nH]c2=O)CCCC3)c1C)C1CCOCC1,> 30 µM
4,CCN(c1cc(/C=C/c2cccc(CN(C)C)c2)cc(C(=O)NCc2c(C)c3c([nH]c2=O)CCCC3)c1C)C1CCOCC1,15.7 µM
5,CCN(c1cc(/C=C/c2ccc3c(c2)NC(=O)CO3)cc(C(=O)NCc2c3c(c(C)[nH]c2=O)CCCC3)c1C)C1CCOCC1,30 µM
6,CCN(c1cc(/C=C/c2ccc3c(c2)NC(=O)CO3)cc(C(=O)NCc2c(C)c3c([nH]c2=O)CCCC3)c1C)C1CCOCC1,25.7 µM
7,CCN(c1cc(/C=C/c2ccc(CN3C[C@@H](C)O[C@@H](C)C3)c(F)c2)cc(C(=O)NCc2c(C)c3c([nH]c2=O)CCCC3)c1C)C1CCOCC1,20.4 µM
8,CCN(c1cc(/C=C/c2ccc(CN3C[C@@H](C)O[C@@H](C)C3)c(F)c2)cc(C(=O)NCc2c3c(c(C)[nH]c2=O)CCCC3)c1C)C1CCOCC1,> 30 µM
9,CCN(c1cc(/C=C/c2cccc(CN3CCOCC3)c2)cc(C(=O)NCc2c(C)c3c([nH]c2=O)CCCC3)c1C)C1CCOCC1,> 30 µM
10,CCN(c1cc(/C=C/c2ccc(CN3CCN(C)CC3)cc2)cc(C(=O)NCc2c(C)c3c([nH]c2=O)CCCC3)c1C)C1CCOCC1,4.31 µM
11,CCN(c1cc(/C=C/c2ccc(CN3CCC4(CC3)OCCO4)cc2)cc(C(=O)NCc2c(C)c3c([nH]c2=O)CCCC3)c1C)C1CCOCC1,21.6 µM
12,CCN(c1cc(-c2ccc(CN3CCN(C)CC3)cc2)cc(C(=O)NCc2c3c(c(C)[nH]c2=O)CCCC3)c1C)C1CCOCC1,1.78 µM

# Tested on: MV4-11
# Test: Antiproliferative activity against human MV4-11 cells
# Format: functional, cell-based
# Conditions: not given
row,Compound,IC50
1,CCN(c1cc(/C=C/c2ccc(CN3C[C@@H]4C[C@H]3CO4)c(F)c2)cc(C(=O)NCc2c3c(c(C)[nH]c2=O)CCCC3)c1C)C1CCOCC1,21.1 µM
2,CCN(c1cc(/C=C/c2ccc(CN3C[C@@H](C)O[C@@H](C)C3)cc2)cc(C(=O)NCc2c3c(c(C)[nH]c2=O)CCCC3)c1C)C1CCOCC1,> 30 µM
3,CCN(c1cc(/C=C/c2ccc(CN3CCC4(CC3)OCCO4)cc2)cc(C(=O)NCc2c3c(c(C)[nH]c2=O)CCCC3)c1C)C1CCOCC1,3.21 µM
4,CCN(c1cc(/C=C/c2ccc3c(c2)NC(=O)CO3)cc(C(=O)NCc2c3c(c(C)[nH]c2=O)CCCC3)c1C)C1CCOCC1,4.56 µM
5,CCN(c1cc(/C=C/c2ccc(CN3C[C@@H](C)O[C@@H](C)C3)c(F)c2)cc(C(=O)NCc2c(C)c3c([nH]c2=O)CCCC3)c1C)C1CCOCC1,12 µM
6,CCN(c1cc(/C=C/c2ccc(CN3C[C@@H](C)O[C@@H](C)C3)c(F)c2)cc(C(=O)NCc2c3c(c(C)[nH]c2=O)CCCC3)c1C)C1CCOCC1,4.36 µM
7,CCN(c1cc(/C=C/c2ccc(CN3CCC4(CC3)OCCO4)cc2)cc(C(=O)NCc2c(C)c3c([nH]c2=O)CCCC3)c1C)C1CCOCC1,3.87 µM
8,CCN(c1cc(-c2ccc(CN3CCN(C)CC3)cc2)cc(C(=O)NCc2c3c(c(C)[nH]c2=O)CCCC3)c1C)C1CCOCC1,> 30 µM

# Results, then the molecule that gave them:
row,IC50,Compound
1,3.98 µM,CCN(c1cc(/C=C/c2cccc(CN(C)C)c2)cc(C(=O)NCc2c(C)c3c([nH]c2=O)CCCC3)c1C)C1CCOCC1
2,5.69 µM,CCN(c1cc(/C=C/c2ccc3c(c2)NC(=O)CO3)cc(C(=O)NCc2c(C)c3c([nH]c2=O)CCCC3)c1C)C1CCOCC1
3,9.23 µM,CCN(c1cc(/C=C/c2cccc(CN3CCOCC3)c2)cc(C(=O)NCc2c(C)c3c([nH]c2=O)CCCC3)c1C)C1CCOCC1
4,22.6 µM,CCN(c1cc(/C=C/c2ccc(CN3CCN(C)CC3)cc2)cc(C(=O)NCc2c(C)c3c([nH]c2=O)CCCC3)c1C)C1CCOCC1

# From ChEMBL document CHEMBL4627254, “Design and synthesis of (E)-1,2-diphenylethene-based EZH2 inhibitors” (Bioorg Med Chem Lett, 2020)
